From PMC5218480 (PLoS ONE, 2017)

System: MV-4-11 cells
Experiment: Gene expression microarray analysis (Affymetrix PrimeView) and GSEA
Assay type: cell-based, human
Design: RFU PODN (11730768_x_at) / Fold change /veh PODN (11730768_x_at) / RFU LINC00158 (11744669_a_at) / Fold change /veh LINC00158 (11744669_a_at) / RFU DUSP10 (11751237_a_at) / Fold change /veh DUSP10 (11751237_a_at) / RFU ID3 (11757404_x_at) / Fold change /veh ID3 (11757404_x_at) / RFU PLEKHG5 (11737974_s_at) / Fold change /veh PLEKHG5 (11737974_s_at) / RFU LRRC4B (11730491_at) / Fold change /veh LRRC4B (11730491_at) / RFU GIMAP4 (11747438_a_at) / Fold change /veh GIMAP4 (11747438_a_at) / RFU KRT8 (11758183_x_at) / Fold change /veh KRT8 (11758183_x_at) / RFU CNN1 (11734310_a_at) / Fold change /veh CNN1 (11734310_a_at) / RFU VPS37D (11726825_at) / Fold change /veh VPS37D (11726825_at) / RFU C10orf10 (11716522_x_at) / Fold change /veh C10orf10 (11716522_x_at) / RFU KIR2DL2 /// KIR2DL4 /// KIR2DL5A /// KIR2DL5B /// KIR2DS1 /// KIR2DS2 /// KIR2DS3 /// KIR2DS4 /// KIR3DL3 /// KIR3DL3 /// KIR3DS1 (11738374_at) / Fold change /veh KIR2DL2 /// KIR2DL4 /// KIR2DL5A /// KIR2DL5B /// KIR2DS1 /// KIR2DS2 /// KIR2DS3 /// KIR2DS4 /// KIR3DL3 /// KIR3DL3 /// KIR3DS1 (11738374_at) / RFU C1QL1 (11718748_at) / Fold change /veh C1QL1 (11718748_at) / RFU TMPRSS4 (11747572_a_at) / Fold change /veh TMPRSS4 (11747572_a_at) / RFU HAMP (11756126_x_at) / Fold change /veh HAMP (11756126_x_at) / RFU RNFT2 (11725882_a_at) / Fold change /veh RNFT2 (11725882_a_at) / RFU NR4A2 (11747474_a_at) / Fold change /veh NR4A2 (11747474_a_at) / RFU ABCC12 (11746883_a_at) / Fold change /veh ABCC12 (11746883_a_at) / RFU TMEM136 (11760407_x_at) / Fold change /veh TMEM136 (11760407_x_at) / RFU CLDN22 /// WWC2 (11732394_at) / Fold change /veh CLDN22 /// WWC2 (11732394_at) / RFU HLA-DPB1 (11760878_x_at) / Fold change /veh HLA-DPB1 (11760878_x_at) / RFU SPINT1 (11716480_a_at) / Fold change /veh SPINT1 (11716480_a_at) / RFU GAP43 (11754022_s_at) / Fold change /veh GAP43 (11754022_s_at) / RFU A4GNT (11735810_at) / Fold change /veh A4GNT (11735810_at) / RFU PRB3 (11715151_x_at) / Fold change /veh PRB3 (11715151_x_at) / RFU TUBB4B (11761932_at) / Fold change /veh TUBB4B (11761932_at) / RFU CAPN14 (11732068_a_at) / Fold change /veh CAPN14 (11732068_a_at) / RFU TMCC2 (11721928_a_at) / Fold change /veh TMCC2 (11721928_a_at) / RFU IRGQ (11745062_a_at) / Fold change /veh IRGQ (11745062_a_at) / RFU FAM174B (11720279_a_at) / Fold change /veh FAM174B (11720279_a_at) / RFU TMPRSS4 (11748680_a_at) / Fold change /veh TMPRSS4 (11748680_a_at) / RFU FAM212B (11763350_a_at) / Fold change /veh FAM212B (11763350_a_at) / RFU PLEKHG5 (11743358_a_at) / Fold change /veh PLEKHG5 (11743358_a_at) / RFU ZSCAN30 (11745921_a_at) / Fold change /veh ZSCAN30 (11745921_a_at) / RFU CMKLR1 (11741424_a_at) / Fold change /veh CMKLR1 (11741424_a_at) / RFU LOC101060620 /// MAPK8IP1 (11723275_at) / Fold change /veh LOC101060620 /// MAPK8IP1 (11723275_at) / RFU SPTSSB (11747773_x_at) / Fold change /veh SPTSSB (11747773_x_at) / RFU PRSS12 (11739890_at) / Fold change /veh PRSS12 (11739890_at) / RFU BIN1 (11741810_x_at) / Fold change /veh BIN1 (11741810_x_at) / RFU WNT11 (11732464_a_at) / Fold change /veh WNT11 (11732464_a_at) / RFU C10orf10 (11716521_a_at) / Fold change /veh C10orf10 (11716521_a_at) / RFU C5orf56 (11738089_at) / Fold change /veh C5orf56 (11738089_at) / RFU CYB561 (11721691_x_at) / Fold change /veh CYB561 (11721691_x_at) / RFU ANKRD19P (11752326_a_at) / Fold change /veh ANKRD19P (11752326_a_at) / RFU OR2T12 /// OR2T33 /// OR2T8 (11738714_s_at) / Fold change /veh OR2T12 /// OR2T33 /// OR2T8 (11738714_s_at) / RFU VCAN (11748164_a_at) / Fold change /veh VCAN (11748164_a_at) / RFU JSRP1 (11732532_at) / Fold change /veh JSRP1 (11732532_at) / RFU KRTAP10-11 (11738290_x_at) / Fold change /veh KRTAP10-11 (11738290_x_at) / RFU MYO3A (11730013_a_at) / Fold change /veh MYO3A (11730013_a_at) / RFU EBF3 (11725865_a_at) / Fold change /veh EBF3 (11725865_a_at) / RFU CAMK2N1 (11719241_x_at) / Fold change /veh CAMK2N1 (11719241_x_at) / RFU C5orf56 (11738088_a_at) / Fold change /veh C5orf56 (11738088_a_at) / RFU OLFML3 (11715873_a_at) / Fold change /veh OLFML3 (11715873_a_at) / RFU LOC100653217 /// NTM (11731650_a_at) / Fold change /veh LOC100653217 /// NTM (11731650_a_at) / RFU MAPK11 (11762145_a_at) / Fold change /veh MAPK11 (11762145_a_at) / RFU FIZ1 (11724087_x_at) / Fold change /veh FIZ1 (11724087_x_at) / RFU OASL (11726364_x_at) / Fold change /veh OASL (11726364_x_at) / RFU SOX15 (11748057_x_at) / Fold change /veh SOX15 (11748057_x_at) / RFU CD79A (11719716_a_at) / Fold change /veh CD79A (11719716_a_at) / RFU HIST1H1D (11736915_at) / Fold change /veh HIST1H1D (11736915_at) / RFU CASKIN2 (11723855_a_at) / Fold change /veh CASKIN2 (11723855_a_at) / RFU LOC730098 (11760151_x_at) / Fold change /veh LOC730098 (11760151_x_at) / RFU OR4N2 (11742367_at) / Fold change /veh OR4N2 (11742367_at) / RFU PRRT2 (11749266_a_at) / Fold change /veh PRRT2 (11749266_a_at) / RFU SNX32 (11753110_a_at) / Fold change /veh SNX32 (11753110_a_at) / RFU CDHR5 (11726645_a_at) / Fold change /veh CDHR5 (11726645_a_at) / RFU RCAN1 (11760418_a_at) / Fold change /veh RCAN1 (11760418_a_at) / RFU FAM167A (11723789_a_at) / Fold change /veh FAM167A (11723789_a_at) / RFU FAM26E (11764081_at) / Fold change /veh FAM26E (11764081_at) / RFU ISYNA1 (11749810_s_at) / Fold change /veh ISYNA1 (11749810_s_at) / RFU ACY1 (11761880_at) / Fold change /veh ACY1 (11761880_at) / RFU 11764098_at / Fold change /veh 11764098_at / RFU SAMD14 (11745864_x_at) / Fold change /veh SAMD14 (11745864_x_at) / RFU NPB (11741838_a_at) / Fold change /veh NPB (11741838_a_at) / RFU TMPRSS6 (11731388_a_at) / Fold change /veh TMPRSS6 (11731388_a_at) / RFU KRTAP10-2 (11738614_at) / Fold change /veh KRTAP10-2 (11738614_at) / RFU ARHGAP8 /// PRR5-ARHGAP8 (11727945_x_at) / Fold change /veh ARHGAP8 /// PRR5-ARHGAP8 (11727945_x_at) / RFU KRTAP5-7 /// NADSYN1 (11734609_at) / Fold change /veh KRTAP5-7 /// NADSYN1 (11734609_at) / RFU RASL12 (11751679_a_at) / Fold change /veh RASL12 (11751679_a_at) / RFU CDKN2B (11736163_a_at) / Fold change /veh CDKN2B (11736163_a_at) / RFU PRF1 (11729649_at) / Fold change /veh PRF1 (11729649_at) / RFU, ZNF638 /// ZNF638-IT1 / Fold change vs veh, ZNF638 /// ZNF638-IT1 / RFU, PANK3 / Fold change vs veh, PANK3 / RFU, SH3YL1 / Fold change vs veh, SH3YL1 / RFU, ZEB2 / Fold change vs veh, ZEB2 / RFU, NRIP1 / Fold change vs veh, NRIP1 / RFU, PTTG1IP / Fold change vs veh, PTTG1IP / RFU, CAPN2 / Fold change vs veh, CAPN2 / RFU, MED14 / Fold change vs veh, MED14 / RFU, SNORA58 / Fold change vs veh, SNORA58 / RFU, C1orf63 / Fold change vs veh, C1orf63 / RFU, LRRFIP1 / Fold change vs veh, LRRFIP1 / RFU, NDUFAF7 / Fold change vs veh, NDUFAF7 / RFU, SLC12A2 / Fold change vs veh, SLC12A2 / RFU, IBTK / Fold change vs veh, IBTK / RFU, ESF1 / Fold change vs veh, ESF1 / Fold change vs veh, TMEM50B / RFU, TAOK1 / Fold change vs veh, TAOK1 / RFU, ACBD3 / Fold change vs veh, ACBD3 / RFU, TMA16 / Fold change vs veh, TMA16 / RFU, RWDD3 / Fold change vs veh, RWDD3 / RFU, BCAT1 / Fold change vs veh, BCAT1 / RFU, EDEM3 / Fold change vs veh, EDEM3 / RFU, TMEM33 / Fold change vs veh, TMEM33 / RFU, WDR75 / Fold change vs veh, WDR75 / RFU, AHCTF1 / Fold change vs veh, AHCTF1 / RFU, TFRC / Fold change vs veh, TFRC / RFU, ZDHHC17 / Fold change vs veh, ZDHHC17 / RFU, NOM1 / Fold change vs veh, NOM1 / RFU, ARL8B / Fold change vs veh, ARL8B / RFU, ZBTB11 / Fold change vs veh, ZBTB11 / RFU, TAMM41 / Fold change vs veh, TAMM41 / RFU, KIAA1704 /// LOC100996395 / Fold change vs veh, KIAA1704 /// LOC100996395 / RFU, ING1 / Fold change vs veh, ING1 / RFU, TRMT61B / Fold change vs veh, TRMT61B / RFU, FUBP3 / Fold change vs veh, FUBP3 / RFU, TP53 / Fold change vs veh, TP53 / RFU, TNKS2 / Fold change vs veh, TNKS2 / RFU, ZFP14 / Fold change vs veh, ZFP14 / RFU, ACTR2 / Fold change vs veh, ACTR2 / RFU, PPP3R1 / Fold change vs veh, PPP3R1 / RFU, PIK3R1 / Fold change vs veh, PIK3R1 / RFU, HNRNPA1 / Fold change vs veh, HNRNPA1 / RFU, RNF170 / Fold change vs veh, RNF170 / RFU, ZNF28 / Fold change vs veh, ZNF28 / RFU, RNGTT / Fold change vs veh, RNGTT / RFU, OGT / Fold change vs veh, OGT / RFU, BRD1 / Fold change vs veh, BRD1 / RFU, MARS / Fold change vs veh, MARS / RFU, ZNF655 / Fold change vs veh, ZNF655 / RFU, FAHD1 / Fold change vs veh, FAHD1 / RFU, BDP1 / Fold change vs veh, BDP1 / RFU, LRRCC1 / Fold change vs veh, LRRCC1 / RFU, ARID1A / Fold change vs veh, ARID1A / RFU, ZNF146 / Fold change vs veh, ZNF146 / RFU, ZNF330 / Fold change vs veh, ZNF330 / RFU, GPN3 / Fold change vs veh, GPN3 / RFU, C9orf123 / Fold change vs veh, C9orf123 / RFU, N4BP2L2 / Fold change vs veh, N4BP2L2 / RFU, ARFIP1 / Fold change vs veh, ARFIP1 / RFU, FAM179B / Fold change vs veh, FAM179B / RFU, BCL10 / Fold change vs veh, BCL10 / RFU, UHRF1BP1L / Fold change vs veh, UHRF1BP1L / RFU, BET1 / Fold change vs veh, BET1 / RFU, CNOT2 / Fold change vs veh, CNOT2 / RFU, ZNF268 / Fold change vs veh, ZNF268 / Fold change vs veh, ZNF507 / RFU, DGCR2 / Fold change vs veh, DGCR2 / RFU, WDSUB1 / Fold change vs veh, WDSUB1 / Fold change vs veh, HSP90B1 /// MIR3652 / RFU, ADSS / Fold change vs veh, ADSS / RFU, GK / Fold change vs veh, GK / RFU, ZNF148 / Fold change vs veh, ZNF148 / RFU, TAF9 / Fold change vs veh, TAF9 / RFU, SLC1A5 / Fold change vs veh, SLC1A5 / RFU, SLMO2 / Fold change vs veh, SLMO2 / RFU, ABCC4 / Fold change vs veh, ABCC4 / RFU, LOC101060439 /// RAP1B / Fold change vs veh, LOC101060439 /// RAP1B / RFU, RFX7 / Fold change vs veh, RFX7 / RFU, GTPBP10 / Fold change vs veh, GTPBP10 / RFU, CNEP1R1 / Fold change vs veh, CNEP1R1 / RFU, BIVM-ERCC5 /// ERCC5 / Fold change vs veh, BIVM-ERCC5 /// ERCC5 / RFU, ILF3 / Fold change vs veh, ILF3 / RFU 11762660_at / Fold change /veh 11762660_at / RFU VCAN (11757783_s_at) / Fold change /veh VCAN (11757783_s_at) / RFU DDX43 (11728927_at) / Fold change /veh DDX43 (11728927_at) / RFU KRT8 (11758188_x_at) / Fold change /veh KRT8 (11758188_x_at) / RFU NKD1 (11759106_at) / Fold change /veh NKD1 (11759106_at) / RFU SRD5A1 (11742802_a_at) / Fold change /veh SRD5A1 (11742802_a_at) / RFU TPSAB1 /// TPSB2 (11721975_s_at) / Fold change /veh TPSAB1 /// TPSB2 (11721975_s_at) / RFU GSTM3 (11746129_a_at) / Fold change /veh GSTM3 (11746129_a_at) / RFU IL23R (11737362_x_at) / Fold change /veh IL23R (11737362_x_at) / RFU TMEM51 (11727254_a_at) / Fold change /veh TMEM51 (11727254_a_at) / RFU PIWIL2 (11732686_x_at) / Fold change /veh PIWIL2 (11732686_x_at) / RFU ORM1 (11744905_x_at) / Fold change /veh ORM1 (11744905_x_at) / RFU CCDC152 (11743942_at) / Fold change /veh CCDC152 (11743942_at) / RFU ECM1 (11717891_a_at) / Fold change /veh ECM1 (11717891_a_at) / RFU IL23R (11748794_a_at) / Fold change /veh IL23R (11748794_a_at) / RFU TNFAIP8L3 (11732012_x_at) / Fold change /veh TNFAIP8L3 (11732012_x_at) / RFU MBOAT4 (11741988_at) / Fold change /veh MBOAT4 (11741988_at) / RFU 11764193_at / Fold change /veh 11764193_at / RFU TMEM53 (11763286_at) / Fold change /veh TMEM53 (11763286_at) / RFU MAGEB2 (11727129_at) / Fold change /veh MAGEB2 (11727129_at) / RFU TMEM200A (11744735_a_at) / Fold change /veh TMEM200A (11744735_a_at) / RFU CCDC152 (11751479_a_at) / Fold change /veh CCDC152 (11751479_a_at) / RFU FAM211A (11726209_a_at) / Fold change /veh FAM211A (11726209_a_at) / RFU RGS16 (11746705_a_at) / Fold change /veh RGS16 (11746705_a_at) / RFU VCAN (11755009_s_at) / Fold change /veh VCAN (11755009_s_at) / RFU RHOB (11743442_s_at) / Fold change /veh RHOB (11743442_s_at) / RFU RGS16 (11720943_a_at) / Fold change /veh RGS16 (11720943_a_at) / RFU RGS16 (11720944_at) / Fold change /veh RGS16 (11720944_at) / RFU, VPS4B / Fold change vs veh, VPS4B / RFU, CREB1 / Fold change vs veh, CREB1 / RFU, DNAJC13 / Fold change vs veh, DNAJC13 / RFU, GNAQ / Fold change vs veh, GNAQ / RFU, CDK5R1 / Fold change vs veh, CDK5R1 / RFU, ZRANB3 / Fold change vs veh, ZRANB3 / RFU, CUL4A / Fold change vs veh, CUL4A / RFU, CCNY / Fold change vs veh, CCNY / RFU, UFL1 / Fold change vs veh, UFL1 / RFU, COG3 / Fold change vs veh, COG3 / RFU, DIAPH2 / Fold change vs veh, DIAPH2 / RFU, SKA2 / Fold change vs veh, SKA2 / RFU, AFF3 / Fold change vs veh, AFF3 / RFU, LMF1 / Fold change vs veh, LMF1 / RFU, IPO11 / Fold change vs veh, IPO11 / RFU, DFFB / Fold change vs veh, DFFB / RFU, FOXP1 / Fold change vs veh, FOXP1 / RFU, CARD8 / Fold change vs veh, CARD8 / RFU, STRN3 / Fold change vs veh, STRN3 / RFU, ADK / Fold change vs veh, ADK / RFU, RASSF2 / Fold change vs veh, RASSF2 / RFU, WIPF1 / Fold change vs veh, WIPF1 / RFU, LARP1B / Fold change vs veh, LARP1B / RFU, RASA1 / Fold change vs veh, RASA1 / RFU, RB1 / Fold change vs veh, RB1 / RFU, PPFIA1 / Fold change vs veh, PPFIA1 / RFU, MAT2A / Fold change vs veh, MAT2A / RFU, CCT5 / Fold change vs veh, CCT5 / RFU, WDR92 / Fold change vs veh, WDR92 / RFU, CUX1 / Fold change vs veh, CUX1 / RFU, TTC7A / Fold change vs veh, TTC7A / RFU, TMEM135 / Fold change vs veh, TMEM135 / RFU, DEPTOR / Fold change vs veh, DEPTOR / RFU, CPM / Fold change vs veh, CPM / RFU, DNAJB6 / Fold change vs veh, DNAJB6 / RFU, CACNA2D3 / Fold change vs veh, CACNA2D3 / RFU, DTX4 / Fold change vs veh, DTX4 / RFU, TFCP2 / Fold change vs veh, TFCP2 / RFU, GMCL1 /// GMCL1P1 / Fold change vs veh, GMCL1 /// GMCL1P1 / RFU, AEBP2 / Fold change vs veh, AEBP2 / RFU, SNHG1 /// SNORD22 /// SNORD25 /// SNORD26 /// SNORD27 /// SNORD28 /// SNORD29 /// SNORD31 / Fold change vs veh, SNHG1 /// SNORD22 /// SNORD25 /// SNORD26 /// SNORD27 /// SNORD28 /// SNORD29 /// SNORD31 / Fold change (Aza/veh), C12orf56 (ProbeSet 11735607_a_at) / Fold change (ACY-1035/veh), C12orf56 (ProbeSet 11735607_a_at) / Fold change (Aza/veh), FGFR1OP (ProbeSet 11751329_s_at) / Fold change (ACY-1035/veh), FGFR1OP (ProbeSet 11751329_s_at) / Fold change (Aza/veh), VPS36 (ProbeSet 11739960_a_at) / Fold change (ACY-1035/veh), VPS36 (ProbeSet 11739960_a_at) / RFU SYPL1 (11715823_x_at) / Fold change /veh SYPL1 (11715823_x_at) / RFU IGFBP7 (11715501_s_at) / Fold change /veh IGFBP7 (11715501_s_at) / RFU REEP3 (11722064_at) / Fold change /veh REEP3 (11722064_at) / RFU IGLL1 (11728026_x_at) / Fold change /veh IGLL1 (11728026_x_at): dose or concentration left out as unconfirmed
Conditions: MV-4-11 cells, 48 hours

With `Nc1ccc(-c2cccs2)cc1NC(=O)c1ccc2c(c1)cc(C1CC1)n2CCN1CCOCC1` [ACY-1035] the “Fold change /veh IGLL1 (11728026_x_at)” value was 0.28.
